Experimental data reported in patent publication US20250152675A1, “I-TYPE RECOMBINANT COLLAGEN WITH HIGH TRANSDERMAL ABSORBABILITY, AND USE THEREOF” (XI'AN GIANT BIOGENE TECHNOLOLGY CO., LTD, priority 2022, published 2025).
Residues, ends and D or L forms follow the SMILES beside them.

Assay: Transdermal penetration through ex vivo mouse skin in a single-chamber diffusion cell, content by BCA kit
Type: in vitro ADME, Kunming mice
Conditions: collagen peptide 5 mg/ml in 0.9% NaCl, diffusion area 2.0 cm^2, 37.5° C.
Experimental: 1. Preparation of Mouse Skin Ex Vivo 10 Kunming mice of 20 to 22 g with half male and half […] were used in the experiment. After the mice were killed, the hairs on the abdomen were removed. Then the skin on the hair-removed area was peeled off, stripped of fat and tendons, and rinsed repeatedly with distilled water. After being washed, the mouse skins were rinsed with normal saline, then treated with 10% glycerol, and stored at −20° C. for use (use up within 7 days).
Single-chamber diffusion cell: The effective diffusion area of the diffusion cell is 2.0 cm^2, the volume of the receiving cell is 14 ml, the length of the custom-made stirrer is 1.4 cm, and the receiving solution is 0.9% NaCl solution.
The stored mouse skin was taken out, thawed, washed with normal saline, and sandwiched between the receiving chamber and the supplying chamber, with the medicated side facing the supplying chamber and the skin side facing the receiving chamber. The temperature of the water bath system was adjusted to 37.5° C., and the stirring speed was adjusted to 100 rpm/min. 0.9% NaCl solution pre-warmed at 37° C. was added to the receiving chamber and the air bubbles were exhausted, in order to reduce the interference, the inner surface of the mouse skin was firstly contacted with the receiving solution without medication and all the receiving solution was replaced. Then the 27 collagen peptides synthesized were prepared into 5 mg/ml solutions using 0.9% NaCl respectively, which were injected into the supplying chamber and firmly adhere to the mouse skin respectively. After 24 h, part of the receiving solution was absorbed with a syringe as the sample solution to determine the transdermal amount of collagen peptide.
The BCA kit method was used to determine the polypeptide content in the sample solution. […]

SMILES	24h penetration amount
CC(C)C[C@H](NC(=O)CNC(=O)[C@H](C)NC(=O)[C@@H](NC(=O)CNC(=O)[C@@H]1CCCN1C(=O)[C@H](CC(C)C)NC(=O)CNC(=O)[C@H](CCCNC(=N)N)NC(=O)[C@H](C)NC(=O)CNC(=O)[C@H](CCC(N)=O)NC(=O)[C@@H]1CCCN1C(=O)CNC(=O)[C@@H]1CCCN1C(=O)[C@@H]1CCCN1C(=O)CNC(=O)[C@H](CCCNC(=N)N)NC(=O)[C@H](CCC(=O)O)NC(=O)CNC(=O)[C@@H]1CCCN1C(=O)[C@H](CCCNC(=N)N)NC(=O)CNC(=O)[C@@H]1CCCN1C(=O)[C@H](CCCCN)NC(=O)CNC(=O)[C@H](C)NC(=O)[C@H](CCC(=O)O)NC(=O)CNC(=O)[C@H](CC(=O)O)NC(=O)[C@H](CC(=O)O)NC(=O)CNC(=O)[C@H](CC(N)=O)NC(=O)[C@H](CCCCN)NC(=O)CN)[C@@H](C)O)C(=O)N1CCC[C@H]1C(=O)O [compound 2] (H-GKNGDDGEAGKPGRPGERGPPGPQGARGLPGTAGLP-OH; N-terminus and C-terminus assumed)	2097.44 µg
CSCC[C@H](NC(=O)CNC(=O)[C@@H]1CCCN1C(=O)[C@H](CC(C)C)NC(=O)CNC(=O)[C@H](C)NC(=O)[C@@H](NC(=O)CNC(=O)[C@@H]1CCCN1C(=O)[C@H](CC(C)C)NC(=O)CNC(=O)[C@H](CCCNC(=N)N)NC(=O)[C@H](C)NC(=O)CNC(=O)[C@H](CCC(N)=O)NC(=O)[C@@H]1CCCN1C(=O)CNC(=O)[C@@H]1CCCN1C(=O)[C@@H]1CCCN1C(=O)CNC(=O)[C@H](CCCNC(=N)N)NC(=O)[C@H](CCC(=O)O)NC(=O)CN)[C@@H](C)O)C(=O)N[C@@H](CCCCN)C(=O)NCC(=O)N[C@@H](Cc1c[nH]cn1)C(=O)N[C@@H](CCCNC(=N)N)C(=O)NCC(=O)N[C@@H](Cc1ccccc1)C(=O)N[C@@H](CO)C(=O)NCC(=O)N[C@@H](CC(C)C)C(=O)N[C@@H](CC(=O)O)C(=O)NCC(=O)N[C@@H](C)C(=O)N[C@@H](CCCCN)C(=O)O [compound 3] (H-GERGPPGPQGARGLPGTAGLPGMKGHRGFSGLDGAK-OH; N-terminus and C-terminus assumed)	2224.03 µg
CSCC[C@H](NC(=O)[C@H](CCC(N)=O)NC(=O)CNC(=O)[C@@H]1CCCN1C(=O)[C@H](C)NC(=O)CNC(=O)[C@H](CC(N)=O)NC(=O)[C@H](CCC(=O)O)NC(=O)CNC(=O)[C@@H]1CCCN1C(=O)[C@H](CO)NC(=O)CNC(=O)[C@@H]1CCCN1C(=O)[C@H](CCC(=O)O)NC(=O)CNC(=O)[C@H](CCCCN)NC(=O)[C@@H]1CCCN1C(=O)CNC(=O)[C@H](C)NC(=O)[C@@H]1CCCN1C(=O)CNC(=O)[C@H](C)NC(=O)[C@H](CC(=O)O)NC(=O)CNC(=O)[C@H](CCCCN)NC(=O)[C@H](C)NC(=O)CN)C(=O)NCC(=O)N1CCC[C@H]1C(=O)N[C@@H](CCCNC(=N)N)C(=O)NCC(=O)N[C@@H](CC(C)C)C(=O)N1CCC[C@H]1C(=O)NCC(=O)N[C@@H](CCC(=O)O)C(=O)N[C@@H](CCCNC(=N)N)C(=O)O [compound 4] (H-GAKGDAGPAGPKGEPGSPGENGAPGQMGPRGLPGER-OH; N-terminus and C-terminus assumed)	2034.78 µg
CSCC[C@H](NC(=O)[C@H](CCC(N)=O)NC(=O)CNC(=O)[C@@H]1CCCN1C(=O)[C@H](C)NC(=O)CNC(=O)[C@H](CC(N)=O)NC(=O)[C@H](CCC(=O)O)NC(=O)CN)C(=O)NCC(=O)N1CCC[C@H]1C(=O)N[C@@H](CCCNC(=N)N)C(=O)NCC(=O)N[C@@H](CC(C)C)C(=O)N1CCC[C@H]1C(=O)NCC(=O)N[C@@H](CCC(=O)O)C(=O)N[C@@H](CCCNC(=N)N)C(=O)NCC(=O)N[C@@H](CCCNC(=N)N)C(=O)N1CCC[C@H]1C(=O)NCC(=O)N[C@@H](C)C(=O)N1CCC[C@H]1C(=O)NCC(=O)N1CCC[C@H]1C(=O)N[C@@H](C)C(=O)NCC(=O)N[C@@H](C)C(=O)N[C@@H](CCCNC(=N)N)C(=O)NCC(=O)N[C@@H](CC(N)=O)C(=O)N[C@@H](CC(=O)O)C(=O)NCC(=O)N[C@@H](C)C(=O)N[C@H](C(=O)O)[C@@H](C)O [compound 5] (H-GENGAPGQMGPRGLPGERGRPGAPGPAGARGNDGAT-OH; N-terminus and C-terminus assumed)	2123.45 µg
C[C@H](NC(=O)CNC(=O)[C@@H](NC(=O)[C@H](C)NC(=O)CNC(=O)[C@H](CC(=O)O)NC(=O)[C@H](CC(N)=O)NC(=O)CNC(=O)[C@H](CCCNC(=N)N)NC(=O)[C@H](C)NC(=O)CNC(=O)[C@H](C)NC(=O)[C@@H]1CCCN1C(=O)CNC(=O)[C@@H]1CCCN1C(=O)[C@H](C)NC(=O)CNC(=O)[C@@H]1CCCN1C(=O)[C@H](CCCNC(=N)N)NC(=O)CNC(=O)[C@H](CCCNC(=N)N)NC(=O)[C@H](CCC(=O)O)NC(=O)CN)[C@@H](C)O)C(=O)N[C@@H](C)C(=O)NCC(=O)N1CCC[C@H]1C(=O)N1CCC[C@H]1C(=O)NCC(=O)N1CCC[C@H]1C(=O)N[C@H](C(=O)NCC(=O)N1CCC[C@H]1C(=O)N[C@@H](C)C(=O)NCC(=O)N1CCC[C@H]1C(=O)N1CCC[C@H]1C(=O)O)[C@@H](C)O [compound 6] (H-GERGRPGAPGPAGARGNDGATGAAGPPGPTGPAGPP-OH; N-terminus and C-terminus assumed)	2233.35 µg
CC(C)C[C@H](NC(=O)CNC(=O)[C@@H](NC(=O)[C@@H]1CCCN1C(=O)CNC(=O)[C@@H]1CCCN1C(=O)[C@H](CCC(=O)O)NC(=O)CNC(=O)[C@H](CCCNC(=N)N)NC(=O)[C@H](C)NC(=O)CNC(=O)[C@H](CCCNC(=N)N)NC(=O)[C@H](CCCCN)NC(=O)CNC(=O)[C@H](CCC(=O)O)NC(=O)[C@H](CCC(=O)O)NC(=O)CNC(=O)[C@H](C)NC(=O)[C@@H]1CCCN1C(=O)CNC(=O)[C@@H]1CCCN1C(=O)[C@@H]1CCCN1C(=O)CNC(=O)[C@H](CCC(N)=O)NC(=O)[C@@H](NC(=O)CNC(=O)[C@@H](NC(=O)[C@@H]1CCCN1C(=O)CN)C(C)C)C(C)C)[C@@H](C)O)C(=O)N1CCC[C@H]1C(=O)NCC(=O)N1CCC[C@H]1C(=O)N1CCC[C@H]1C(=O)NCC(=O)N[C@@H](CCC(=O)O)C(=O)N[C@@H](CCCNC(=N)N)C(=O)O [compound 7] (H-GPVGVQGPPGPAGEEGKRGARGEPGPTGLPGPPGER-OH; N-terminus and C-terminus assumed)	2189.90 µg
CC(C)C[C@H](NC(=O)CNC(=O)[C@@H](NC(=O)[C@@H]1CCCN1C(=O)CNC(=O)[C@@H]1CCCN1C(=O)[C@H](CCC(=O)O)NC(=O)CNC(=O)[C@H](CCCNC(=N)N)NC(=O)[C@H](C)NC(=O)CN)[C@@H](C)O)C(=O)N1CCC[C@H]1C(=O)NCC(=O)N1CCC[C@H]1C(=O)N1CCC[C@H]1C(=O)NCC(=O)N[C@@H](CCC(=O)O)C(=O)N[C@@H](CCCNC(=N)N)C(=O)NCC(=O)NCC(=O)N1CCC[C@H]1C(=O)NCC(=O)N[C@@H](CO)C(=O)N[C@@H](CCCNC(=N)N)C(=O)NCC(=O)N[C@@H](Cc1ccccc1)C(=O)N1CCC[C@H]1C(=O)NCC(=O)N[C@@H](C)C(=O)N[C@@H](CC(=O)O)C(=O)NCC(=O)N[C@H](C(=O)N[C@@H](C)C(=O)NCC(=O)N1CCC[C@H]1C(=O)N[C@@H](CCCCN)C(=O)O)C(C)C [compound 8] (H-GARGEPGPTGLPGPPGERGGPGSRGFPGADGVAGPK-OH; N-terminus and C-terminus assumed)	2013.46 µg
CSCC[C@H](NC(=O)[C@@H](NC(=O)CNC(=O)[C@H](C)NC(=O)[C@H](CCC(N)=O)NC(=O)CNC(=O)[C@H](CCCNC(=N)N)NC(=O)[C@H](C)NC(=O)CNC(=O)[C@@H]1CCCN1C(=O)[C@@H]1CCCN1C(=O)CNC(=O)[C@@H]1CCCN1C(=O)[C@@H]1CCCN1C(=O)CNC(=O)[C@@H]1CCCN1C(=O)[C@H](CCCNC(=N)N)NC(=O)CN)C(C)C)C(=O)NCC(=O)N[C@@H](Cc1ccccc1)C(=O)N1CCC[C@H]1C(=O)NCC(=O)N1CCC[C@H]1C(=O)N[C@@H](CCCCN)C(=O)NCC(=O)N[C@@H](C)C(=O)N[C@@H](C)C(=O)NCC(=O)N[C@@H](CCC(=O)O)C(=O)N1CCC[C@H]1C(=O)NCC(=O)N[C@@H](CCCCN)C(=O)N[C@@H](C)C(=O)NCC(=O)N[C@@H](CCC(=O)O)C(=O)N[C@@H](CCCNC(=N)N)C(=O)O [compound 10] (H-GRPGPPGPPGARGQAGVMGFPGPKGAAGEPGKAGER-OH; N-terminus and C-terminus assumed)	2290.34 µg
CC(C)[C@H](NC(=O)[C@H](C)NC(=O)CNC(=O)[C@@H]1CCCN1C(=O)[C@@H]1CCCN1C(=O)CNC(=O)[C@@H]1CCCN1C(=O)[C@@H](NC(=O)CNC(=O)[C@H](CCCNC(=N)N)NC(=O)[C@H](CCC(=O)O)NC(=O)CNC(=O)[C@H](C)NC(=O)[C@H](CCCCN)NC(=O)CNC(=O)[C@@H]1CCCN1C(=O)[C@H](CCC(=O)O)NC(=O)CNC(=O)[C@H](C)NC(=O)[C@H](C)NC(=O)CNC(=O)[C@H](CCCCN)NC(=O)[C@@H]1CCCN1C(=O)CNC(=O)[C@@H]1CCCN1C(=O)[C@H](Cc1ccccc1)NC(=O)CN)C(C)C)C(=O)NCC(=O)N1CCC[C@H]1C(=O)N[C@@H](C)C(=O)NCC(=O)N[C@@H](CCCCN)C(=O)N[C@@H](CC(=O)O)C(=O)NCC(=O)N[C@@H](CCC(=O)O)C(=O)N[C@@H](C)C(=O)O [compound 11] (H-GFPGPKGAAGEPGKAGERGVPGPPGAVGPAGKDGEA-OH; N-terminus and C-terminus assumed)	2576.34 µg
